Measurements: publication PMC7717579, “Phosphoregulation of HORMA domain protein HIM-3 promotes asymmetric synaptonemal complex disassembly in meiotic prophase in Caenorhabditis elegans” (PLoS Genetics, 2020)
Non-standard residues stand in square brackets, D forms with d. Residues, ends and D or L forms follow the SMILES beside them. *: point of attachment. FITC = O=C1OC2(c3ccc(O)cc3Oc3cc(O)ccc32)c2ccc(NC(=S)*)cc21; pY = N[C@@H](Cc1ccc(OP(=O)(O)O)cc1)C(=O)O; pS = N[C@@H](COP(=O)(O)O)C(=O)O; Ahx = NCCCCCC(=O)O

Target: T1, HTP-2 protein (full length) (Caenorhabditis elegans, UniProt Q95XC8)
T1 sequence (Q95XC8 1-352): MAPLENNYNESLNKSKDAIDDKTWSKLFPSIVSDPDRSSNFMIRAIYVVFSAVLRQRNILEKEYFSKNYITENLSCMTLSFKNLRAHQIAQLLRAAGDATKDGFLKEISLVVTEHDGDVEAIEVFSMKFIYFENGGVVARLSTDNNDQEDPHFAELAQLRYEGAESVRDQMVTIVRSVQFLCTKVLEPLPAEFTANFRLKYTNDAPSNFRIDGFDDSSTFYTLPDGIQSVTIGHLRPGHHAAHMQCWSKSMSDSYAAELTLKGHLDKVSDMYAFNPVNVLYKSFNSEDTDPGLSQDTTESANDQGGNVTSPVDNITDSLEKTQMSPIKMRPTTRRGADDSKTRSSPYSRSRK
Assay: Fluorescence polarization (FP) peptide binding assay
Details: for Kd (HTP-2 binding): FP, 50 nM FITC-tagged HIM-3 closure motif peptide, various concentrations of bacterially purified full-length HTP-2, 20 mM Tris pH 7.5, 300 mM NaCl, 10% glycerol, 1 mM DTT, 0.1% NP-40, 1 hour at room temperature, single-site binding model, triplicated measurements
Excerpt: To understand regulation of meiotic proteins by post-translational modification, we previously carried out mass spectrometry to identify phosphorylated proteins in C. elegans adult hermaphrodites. […] We detected phosphopeptides containing Ser282 either singly or in combination with Ser274, Ser277, or Tyr279, and the most commonly-observed peptide contained doubly-phosphorylated Ser277/Ser282 (Fig 1A and S1 Table). Among the three most C-terminal phosphoresidues, which reside within the conserved closure motif, Tyr279 and Ser or Thr at position 282 are conserved features among nematode HIM-3 orthologs (Fig 1A). […] More recent studies further identified this C-terminus region containing Ser375 to be the closure motif, able to be bound by the HORMA domain of HORMAD1 itself and HORMAD2 [27, 34]. While phosphorylation at the closure motif is conserved between C. elegans HIM-3 and mouse HORMAD1 (S1 Fig), the function is not understood. Since other HORMA family proteins, HTP-1 and -2, are known to bind the HIM-3 closure motif in C. elegans, we first examined if phosphorylation affects HTP-1/2 binding to HIM-3 in vitro. A previous study has shown that both HTP-1 and -2 proteins bind unmodified HIM-3 peptides containing the closure motif in a fluorescence polarization (FP) peptide binding assay. Examination of the crystal structure resolved by the same study led us to predict that phosphorylation at Ser282 would likely interfere with HTP-1/2 binding (Fig 1B). We conducted a similar FP peptide binding assay using purified HTP-2 and fluorescently tagged HIM-3 closure motif peptides containing various modifications (Fig 1C).
Fig 1 Phosphorylation at the HIM-3 closure motif prevents HTP-1/2 binding in vitro. A, top: Schematic diagram of HIM-3, showing the HORMA domain (magenta) and phosphorylation sites identified by mass spectrometry in red. The conserved closure motif is underlined. bottom: Conservation of the Tyr and Ser/Thr, highlighted in orange, in the closure motif in eight Caenorhabditis species. B, left: Diagram of hierarchical binding of HTP-1, 2, 3 and HIM-3 from. center, diagram of possible multivalent binding modes of the axial element, based on. right, Interactions between the HIM-3 closure motif (magenta) and the HTP-2 (grey) HORMA domain shown in PDB structure 4TZL [27]. C, Fluorescence polarization peptide binding assay using bacterially purified HTP-2 protein (full length) and fluorescently tagged HIM-3 peptides with indicated phosphorylation or Ala substitution. Wild type means HIM-3 peptides with no phosphorylation. Phosphorylation at Ser282 inhibits HTP-2 binding in vitro. Error bars are calculated as the SD from triplicated measurements. […]
Fluorescein (FITC) conjugated peptides for the FP assay were synthesized by either Scrum Inc. or Eurofins Inc. as shown in S2 Table. […] For the fluorescence assay, synthesized peptides were first resuspended in DMSO, then diluted into binding buffer (20 mM Tris pH 7.5, 300 mM NaCl, 10% glycerol, 1 mM DTT, 0.1% NP-40). Reactions of 50 μl total volume containing 50 nM peptide and various concentrations of HTP-2 proteins were incubated for 1 hour at room temperature, then fluorescence polarization was measured in 384-well plates using a TECAN Infinite M1000 PRO fluorescence plate reader. Binding data were analyzed with Graphpad Prism version 6.0h for Macintosh (GraphPad Software, La Jolla California USA) using a single-site binding model.

Compound | Kd [µM] | Kd (HTP-2 binding)
CC[C@H](C)[C@H](NC(=O)CNC(=O)[C@H](CCC(N)=O)NC(=O)[C@H](C)NC(=O)[C@H](CC(C)C)NC(=O)CNC(=O)[C@H](Cc1ccc(O)cc1)NC(=O)[C@@H]1CCCN1C(=O)[C@H](CO)NC(=O)[C@H](CC(=O)O)NC(=O)[C@H](CCCNC(=N)N)NC(=O)[C@H](CO)NC(=O)[C@@H](NC(=O)[C@H](CCCNC(=N)N)NC(=O)CCCCCNC(=S)Nc1ccc2c(c1)C(=O)OC21c2ccc(O)cc2Oc2cc(O)ccc21)[C@@H](C)CC)C(=O)N[C@H](C(=O)N[C@@H](CCCCN)C(=O)O)[C@@H](C)O [S282A] ({FITC-Ahx}-RISRDSPYGLAQGITK-OH) | 11.3 | 
CC[C@H](C)[C@H](NC(=O)CNC(=O)[C@H](CCC(N)=O)NC(=O)[C@H](CO)NC(=O)[C@H](CC(C)C)NC(=O)CNC(=O)[C@H](Cc1ccc(OP(=O)(O)O)cc1)NC(=O)[C@@H]1CCCN1C(=O)[C@H](CO)NC(=O)[C@H](CC(=O)O)NC(=O)[C@H](CCCNC(=N)N)NC(=O)[C@H](CO)NC(=O)[C@@H](NC(=O)[C@H](CCCNC(=N)N)NC(=O)CCCCCNC(=S)Nc1ccc2c(c1)C(=O)OC21c2ccc(O)cc2Oc2cc(O)ccc21)[C@@H](C)CC)C(=O)N[C@H](C(=O)N[C@@H](CCCCN)C(=O)O)[C@@H](C)O [Y279phos] ({FITC-Ahx}-RISRDSP[pY]GLSQGITK-OH) | 16.1 | 
CC[C@H](C)[C@H](NC(=O)CNC(=O)[C@H](CCC(N)=O)NC(=O)[C@H](CO)NC(=O)[C@H](CC(C)C)NC(=O)CNC(=O)[C@H](Cc1ccc(O)cc1)NC(=O)[C@@H]1CCCN1C(=O)[C@H](CO)NC(=O)[C@H](CC(=O)O)NC(=O)[C@H](CCCNC(=N)N)NC(=O)[C@H](CO)NC(=O)[C@@H](NC(=O)[C@H](CCCNC(=N)N)NC(=O)CCCCCNC(=S)Nc1ccc2c(c1)C(=O)OC21c2ccc(O)cc2Oc2cc(O)ccc21)[C@@H](C)CC)C(=O)N[C@H](C(=O)N[C@@H](CCCCN)C(=O)O)[C@@H](C)O [unphosphorylated peptides] ({FITC-Ahx}-RISRDSPYGLSQGITK-OH) | 5.8 | 
{FITC}-[Ahx]RISRDSPYGL[pS]QGITK-OH [S282phos, FITC-tagged HIM-3 closure motif peptide phosphorylated at Ser282] |  | not significant binding
{FITC}-[Ahx]RISRDSP[pY]GL[pS]QGITK-OH [Y279phos_S282phos, FITC-tagged HIM-3 closure motif peptide phosphorylated at Tyr279 and Ser282] |  | not significant binding
